Measurements as given in US5554620A, “Substituted 6,11-ethano-6,11-dihydrobenzo[b] quinolizinium salts and compositions and methods of use thereof” (Sterling Winthrop Inc., priority 1994, dated 1996).

Target: PCP receptor
Assay: [3H]TCP radioreceptor assay (binding to PCP recognition sites)
Set-up: species or system rat (male Sprague-Dawley, whole brain)
Conditions: [3H]TCP approx. 1 nM, rat brain membranes; mean of at least two determinations
Protocol: [^3 H]TCP Radioreceptor Assay
[^3 H]TCP binding to PCP recognition sites was performed as described by Vignon et al. Brain Research 1983, 280, 194-197. Male Sprague-Dawley rats were sacrificed by decapitation, and whole brains were homogenized in 10 volumes (wt/vol) of cold Tris-HCl buffer (50 mM, pH 7.7) using a Brinkmann Polytron (setting 6, 30 sec). The homogenate was centrifuged at 40,000×g for 10 min at 4° C. The supernatant was decanted, and the homogenization and centrifugation steps were repeated twice as described above. Following this, the pellet was resuspended in Tris-HCl (5 mM, pH 7.7) at a tissue concentration of 0.5-0.75 g/mL, and one mL aliquots were frozen at -70° C. until use. The binding characteristics for PCP recognition sites were not altered by the freezing of membrane suspensions.
On the day of the assay, membrane aliquots were thawed, resuspended in fresh 5 mM Tris-HCl buffer at a tissue concentration of 1 mg/mL, and stored on ice until use. Each assay tube contained 100 μl of [^3 H]TCP at a final concentration of approximately 1 nM, 100 μL of various concentrations of the compounds of interest, 500 μL of the tissue suspension and 300 μL of buffer to a final assay volume of 1 mL and a final protein concentration of 0.5 mg/tube. Non-specific binding was defined by addition of a final concentration of 100 μM PCP to blank tubes. All tubes were incubated at room temperature for 25 min before termination of the reaction by rapid filtration over Whatman GF/B glass fiber filters that had been presoaked in a solution of 0.5% polyethylenimine for at least 1 hr prior to use. Filters were washed with three 4 mL volumes of cold Tris buffer. Following addition of scintillation cocktail, the amount of bound radioactivity was determined by liquid scintillation spectrometry using a Beckman LS 5000TA liquid scintillation counter with an efficiency for tritium of approximately 55%. Inhibition constants (Ki values) were calculated using the EBDA/LIGAND program (McPherson, J. Pharmacol. Meth. 1985, 14, 213-228), purchased from ElsevierBiosoft, Inc. Results are reported as the Ki values (in nM) which are expressed as the mean of at least two separate determinations; or as a percent (%) inhibition of binding at 10 μM.

Row | Compound | Ki
1 | Oc1c(Cl)ccc2c1C1c3cccc[n+]3C2CC1(c1ccoc1)c1ccoc1 (centres unmarked) [188(c), 6,11-ethano-12,12-di(3-furyl)-9-chloro-10-hydroxy-6,11-dihydrobenzo]b]quinolizinium chloride] | 23.6 nM
2 | [O-][Cl+3]([O-])([O-])[O-].c1ccc(C2(c3ccccc3)CC3c4ccccc4C2c2cccc[n+]23)cc1 (centres unmarked) [111(a), 6,11-Ethano-12,12-diphenyl-6,11-dihydrobenzo[b]quinolizinium perchlorate] | 6.07 nM
3 | Brc1ccc(Br)c2c1C1CC(c3ccoc3)(c3ccoc3)C2c2cccc[n+]21.[O-][Cl+3]([O-])([O-])[O-] (centres unmarked) [60(e), 6,11-ethano-12,12-di(3-furyl)-7,10-dibromo-6,11-dihydrobenzo[b]quinolizinium perchlorate] | 345 nM
4 | Oc1ccc2c(c1)C1c3cccc[n+]3C2CC1(c1ccccc1)c1ccccc1 (centres unmarked) [34(b), 6,11-ethano-12,12-diphenyl-9-hydroxy-6,11-dihydrobenzo[b]quinolizinium chloride] | 21.9 nM
5 | O=[N+]([O-])c1cccc2c1C1CC(c3ccoc3)(c3ccoc3)C2c2cccc[n+]21.[O-][Cl+3]([O-])([O-])[O-] (single isomer, unassigned) [Example 201(c), 6,11-ethano-12,12-di(3-furyl)-7-nitro-6,11-dihydrobenzo[b]quinolizinium perchlorate] | 3430 nM
6 | Clc1cccc2[n+]1C1CC(c3ccoc3)(c3ccoc3)C2c2ccccc21.[O-][Cl+3]([O-])([O-])[O-] (centres unmarked) [192(g), 6,11-ethano-12,12-di(3-furyl)-4-chloro-6,11-dihydrobenzo[b]-quinolizinium perchlorate] | 633 nM
7 | COc1ncccc1C1(c2cccnc2OC)CC2c3ccccc3C1c1cccc[n+]12.[O-][Cl+3]([O-])([O-])[O-] (centres unmarked) [160(d), 6,11-ethano-12,12-di-(2-methoxypyridin-3-yl)-6,11-dihydrobenzo[b]quinolizinium perchlorate] | 453 nM
8 | CCOC12c3ccoc3CCC1C1c3ccccc3C2c2cccc[n+]21 (centres unmarked) [9(b), 6,11[[5',4!]-4'-ethoxy-4',5',6',7'-tetrahydrobenzofuryl]-6,11-dihydrobenzo[b]quinolizinium hexafluorophosphate] | 5.9 nM
9 | 6,11-ethano-12,12-di(3-furyl)-10-stearyloxy-6,11-dihydrobenzo[b]quinolizinium chloride [Example 163] | 7.54 nM
10 | Cc1cc[n+]2c(c1)C1c3ccccc3C2CC1(c1ccccc1)c1ccccc1.[O-][Cl+3]([O-])([O-])[O-] (centres unmarked) [54(E), 6,11-ethano-12,12-diphenyl-2-methyl-6,11-dihydrobenzo[b]quinolizinium perchlorate] | 52 nM
11 | C#CC1(c2ccccc2)CC2c3ccccc3C1c1cccc[n+]12 (single isomer, unassigned) [Example 56, 6,11-ethano-12-phenyl-12-ethynyl-6,11-dihydrobenzo[b]quinolizinium hexafluorophosphate] | 56 nM
12 | CCOC1(c2ccoc2)CC2(C)c3ccccc3C1c1cccc[n+]12 [13(b), 6,11-ethano-12-(3-furyl)-12-ethoxy-6-methyl-6,11-dihydrobenzo[b]quinolizinium monobenzoyl-D-tartarate] | 45 nM
13 | COc1cccc(C23c4ccccc4CC2C2c4ccccc4C3c3cccc[n+]32)c1 (single isomer, unassigned) [5(d), 6,11[2',3']-3'-(3-methoxyphenyl)-indanyl]16,11-dihydrobenzo[b]quinolizinium hexafluorophosphate] | 22 nM
14 | c1ccc2c(c1)C1CC(c3ncc[nH]3)(c3ncc[nH]3)C2c2cccc[n+]21 (centres unmarked) [173(e), 6,11-ethano-12,12-di(imidazol-2-yl)-6,11-dihydrobenzo[b]quinolizinium chloride] | 1670 nM
15 | Fc1ccc2c(c1)C1c3cccc[n+]3C2CC1(c1cc[nH]n1)c1cc[nH]n1 (centres unmarked) [198(b), 6,11-ethano-12,12-di-(pyrazol-3-yl)]-9-fluoro-6,11-dihydrobenzo-[b]quinolizinium chloride] | 11.7 nM
16 | O=[N+]([O-])c1cccc2c1C1c3cccc[n+]3C2CC1(c1ccoc1)c1ccoc1.[O-][Cl+3]([O-])([O-])[O-] (single isomer, unassigned) [Example 201(d), 6,11-ethano-12,12-di(3-furyl)-10-nitro-6,11-dihydrobenzo[b]quinolizinium perchlorate] | 49.2 nM
17 | CC(C)(C)C(=O)Oc1cccc2c1C1c3cccc[n+]3C2CC1(c1ccoc1)c1ccoc1 (centres unmarked) [Example 174, 6,11-ethano-12,12-di(3-furyl)-10-trimethylacetyloxy-6,11dihydrobenzo-[b]quinolizinium chloride] | 23.7 nM
18 | Cc1noc2c1CCC1C3c4ccccc4C(c4cccc[n+]43)C21c1ccoc1 (centres unmarked) [8(c), 6,11[[6',7']-7'-(3-furyl)-3'-methyl-4',5',6',7'-tetrahydrobenzisoxazol]6,11-dihydrobenzo[b]quinolizinium hexafluorophosphate] | 117 nM
19 | CC12CC(c3ccccc3)(c3ccccc3)C(c3c(O)cccc31)c1cccc[n+]12 (centres unmarked) [38(c), 6,11-ethano-12,12-diphenyl-10-hydroxy-6-methyl-6,11-dihydrobenzo[b]quinolizinium chloride] | 16.6 nM
20 | COc1ccc[n+]2c1C1c3ccccc3C2CC1(c1ccoc1)c1ccoc1 (centres unmarked) [164(e), 6,11-ethano-12,12-di(3-furyl)-1-methoxy-6,11-dihydrobenzo[b]quinolizinium chloride] | 18.9 nM
21 | CCOC1(c2ccoc2)CC2c3ccccc3C1c1cccc[n+]12 (centres unmarked) [11(d), 6,11-ethano-12-(3-furyl)-12-ethoxy-6,11-dihydrobenzo[b]quinolizinium hexafluorophosphate] | 26 nM
22 | COc1ccc2c(c1)C1(c3ccccc3)C3c4ccccc4C(C1C2)[n+]1ccccc13 (centres unmarked) [3(d), 6,11[[2',3']-3'-phenyl-6'-methoxyindanyl]6,11-dihydrobenzo[b]quinoliziniumhexafluorophosphate] | 14.1 nM
23 | Clc1cccc(C2(c3cccc(Cl)c3)CC3c4ccccc4C2c2cccc[n+]23)c1 (centres unmarked) [55(b), 6,11-ethano-12,12-di(m-chlorophenyl)-6,11-dihydrobenzo[b]quinolizinium chloride] | 104 nM
24 | Fc1ccc(C2(c3ccc(F)cc3)CC3c4ccccc4C2c2cccc[n+]23)cc1 (centres unmarked) [31(c), 6,11-ethano-12,12-di(p-fluorophenyl)-6,11-dihydrobenzo[b]-quinolizinium chloride] | 2210 nM
25 | COc1ccc(C2(c3ccc(OC)cc3)CC3c4ccccc4C2c2cccc[n+]23)cc1 (centres unmarked) [44(b), 6,11-ethano-12,12-di(p-methoxyphenyl)-6,11-dihydrobenzo[b]quinolizinium hexafluorophosphate] | 28100 nM
26 | COc1cccc(C2(c3cccc(OC)n3)CC3c4ccccc4C2c2cccc[n+]23)n1.[O-][Cl+3]([O-])([O-])[O-] (centres unmarked) [67(e), 6,11-ethano-12,12-di-(6-methoxypyridin-2-yl)-6,11-dihydrobenzo[b]quinolizinium perchlorate] | 80 nM
27 | c1ccc2c(c1)CC1C3c4ccccc4C(c4cccc[n+]43)C21c1ccoc1 (centres unmarked) [6(c), 6,11[[2',3']-3'-(3-furyl)-indanyl]6,11-dihydrobenzo[b]quinolizinium hexafluorophosphate] | 1.19 nM
28 | c1cc[n+]2c(c1)C1c3c(ccc4c3OCO4)C2CC1(c1ccoc1)c1ccoc1 (centres unmarked) [183(c), 6,11-ethano-12,12-di(3-furyl)-9,10-methylenedioxy-6,11-dihydrobenzo[b]quinolizinium chloride] | 2.72 nM

Same assay, conditions: [3H]TCP approx. 1 nM, rat brain membranes; mean of at least two determinations; hydrate

Row | Compound | Ki
29 | CC12CC(c3ccccc3)(c3ccccc3)C(c3ccccc31)c1cccc[n+]12 (centres unmarked) [Example 21, 6,11-ethano-12,12-diphenyl-6-methyl-6,11-dihydrobenzo[b]quinolizinium chloride hydrate] | 13 nM

Same assay, conditions: inhibition of [3H]TCP binding at 10 μM

Row | Compound | [3H]TCP percent inhibition @ 10 μm
30 | Cc1ccc(C2(c3ccc(C)cc3)CC3c4ccccc4C2c2cccc[n+]23)cc1.[Cl-] (centres unmarked) [30(c), 6,11-ethano-12,12-di-(p-methylphenyl)-6,11-dihydrobenzo[b]quinolizinium chloride] | 22%
31 | Cc1ccc(S(=O)(=O)n2nccc2C2(c3ccoc3)CC3c4ccccc4C2c2cccc[n+]23)cc1.[Br-] (single isomer, unassigned) [Example 184(d), 6,11-ethano-12-(3-furyl)-12-[1-(p-toluenesulfonyl)pyrazol-5-yl]-6,11-dihydrobenzo[b]quinolizinium bromide] | 53%
32 | c1ccc2c(c1)C1CC(c3nc[nH]n3)(c3nc[nH]n3)C2c2cccc[n+]21 (centres unmarked) [159(h), 6,11-ethano-12,12-di-[3-(1,2,4-triazolyl)]-6,11-dihydrobenzo[b]quinolizinium chloride] | 31%
